Laboratory results: patent US6642276B2, “Controlled release macrolide pharmaceutical formulations” (M/S Ind-Swift Limited, priority 2001, dated 2003)

How the values were obtained:
Assay type in all cases: physicochemical
[1] = pH of 0.2% suspension in water: methanol (19:1)
[2] = pH solubility studies (mg of drug dissolved per ml of buffer)
[3] = Stability studies of bulk drug, physical mixture and citrate salt on storage

## CC[C@H]1OC(=O)[C@H](C)[C@@H](O[C@H]2C[C@@](C)(OC)[C@@H](O)[C@H](C)O2)[C@H](C)[C@@H](O[C@@H]2O[C@H](C)C[C@H](N(C)C)[C@H]2O)[C@](C)(OC)C[C@@H](C)C(=O)[C@H](C)[C@@H](O)[C@]1(C)O [Clarithromycin, 6-O-methylerythromycinA]
[1]
  pH of 0.2% suspension in water: methanol (19:1): 7.5 to 10.0
[2]; pH 3.0 (KCl Buffer)
  pH solubility studies (mg of Clarithromycin dissolved per ml of buffer): 2.00 mg/ml
[2]; pH 4.0 (KCl Buffer)
  pH solubility studies (mg of Clarithromycin dissolved per ml of buffer): 0.33 mg/ml
[2]; pH 5.0 (Phosphate Buffer)
  pH solubility studies (mg of Clarithromycin dissolved per ml of buffer): 10.09 mg/ml
[2]; pH 6.0 (Phosphate Buffer)
  pH solubility studies (mg of Clarithromycin dissolved per ml of buffer): 7.46 mg/ml
[2]; pH 7.0 (Phosphate Buffer)
  pH solubility studies (mg of Clarithromycin dissolved per ml of buffer): 2.00 mg/ml
[3]; 40° C. and 75% RH-2 Months
  Stability Studies: change / Degradation of Clarithromycin: No Change/No
[3]; 40° C. and 75% RH-3 Months
  Stability Studies: change / Degradation of Clarithromycin: No Change/No
[3]; 40° C. and 75% RH-4 Months
  Stability Studies: change / Degradation of Clarithromycin: No Change/No
[3]; 40° C. and 75% RH-5 Months
  Stability Studies: change / Degradation of Clarithromycin: No Change/No
[3]; 60° C.-1 month
  Stability Studies: change / Degradation of Clarithromycin: No Change/No
[3]; 60° C.-2 months
  Stability Studies: change / Degradation of Clarithromycin: No Change/No
[3]; 60° C.-3 months
  Stability Studies: change / Degradation of Clarithromycin: No Change/No
[3]; 85° C.-1 day
  Stability Studies: change / Degradation of Clarithromycin: No Change/No
[3]; 85° C.-4 days
  Stability Studies: change / Degradation of Clarithromycin: No Change/No
[3]; 85° C.-7 days
  Stability Studies: change / Degradation of Clarithromycin: No Change/No
[3]; 85°-15 days
  Stability Studies: change / Degradation of Clarithromycin: No Change/No
[3]; RT-3 Months
  Stability Studies: change / Degradation of Clarithromycin: No Change/No
[3]; RT-6 Months
  Stability Studies: change / Degradation of Clarithromycin: No Change/No
[3]; RT-9 Months
  Stability Studies: change / Degradation of Clarithromycin: No Change/No
[3]; RT-12 Months
  Stability Studies: change / Degradation of Clarithromycin: No Change/No
